≈ marks a conversion by molar mass, not a printed value.
Key:
MTB-H37Rv = assay: Post-antibiotic effect (PAE); format: cell-based, Mycobacterium tuberculosis
Method: PAE of SQ641. PAE of SQ641 was determined as described (Chan et al. Antimicrob. Agents Chemother., 2004, 48(1), 340-343). At the end of incubation, suspensions were diluted 1/25, and 0.1 ml was injected into each of triplicate BACTEC vials: drug dilution was 1000-fold in the BACTEC vials. Drug carryover controls (to ascertain absence of any carryover drug) consisting of the same MTB suspension as in the test and similar drug dilutions were mixed immediately, diluted 1/25, and 0.1 ml was injected into BACTEC vials. BACTEC vials were incubated at 37° C. and read in a BACTEC TB-460 reader every 24 hr until the cumulative GI in the control reached 999. PAE was calculated from the formula PAE=T−C, where T is the time required for the drug-exposed organisms to reach a cumulative GI of 100 and C is the time required for the controls to reach a cumulative GI of 100.
PAE determines the time required for the organisms to recover following exposure to an antimicrobial agent for a short duration. PAE activities of both SQ641 and INH, each at 4 μg/ml, were investigated with MTB-H37Rv. Following 2 hr of exposure to drugs, the PAE of INH was 17 hr as compared to 55 hr for SQ641. The PAE of SQ641 was over 3 times that of INH.

MTB = assay: In vivo efficacy in mouse model of chronic TB disease (lung CFU); details: mice treated for 3 wk, starting 3 wk after infection, gav, ip, iv
Method: In vivo activity against MTB. In vivo efficacy of CM analogues was investigated in a mouse model of chronic TB disease (FIG. 2). Three wk after infection, mice were treated for 3 wk with the drugs by gavage (gav), intraperitoneal injection (ip), intravenous injection (iv), or intranasal (in) routes. Efficacy was analyzed by determining Colony-Forming Units (CFU) in lungs. […] Each achieved a decrease of 1-log10 lung CFU compared to the late control [LC] CFU by at least one route, which varied for each drug.

MAC = assay: Synergy by checkerboard titration (microdilution); format: cell-based, M. avium complex; details: for MIC: Mycobacterium avium, drug alone
[1] = test system: Mycobacteria (all mycobacterial species tested); assay: In vitro MIC and MBC across mycobacterial species; format: cell-based; details: NTM tested (Table 5)
MTB in J774A.1 cells = assay: Intracellular activity of SQ641 with efflux pump blockers; format: cell-based, Mycobacterium tuberculosis; details: 4 days exposure
[2] = test system: MTB-pSMT1 luciferase reporter strain; assay: Activity against slowly replicating (hypoxic) MTB; format: cell-based; details: Mycobacterium tuberculosis
MTB in J774 cells = assay: Intracellular activity of amino acid conjugates; format: cell-based, Mycobacterium tuberculosis; details: day 0 RLU 775, Control day 7 31700
Method: The amino acid conjugates were tested at concentrations of 4 mg/mL and 8 mg/mL compared with a control and isoniazid (INH).
The intracellular activity against MTB by capuramycin amino acid derivatives was tested. Cells J774 were infected with MTB and treated for 7 days with the amino acid derivative. The mean Relative Light Unites (RLU), an estimation of bacterial viability, was measured as described in Snewin et al., Infect. Immun., 1999, 67(9), 4586-4593).

MTB cultures = assay: Induction of morphological changes and bacterial disintegration; format: cell-based, Mycobacterium tuberculosis
From the text: Induction of morphological changes and bacterial disintegration. […] Tubercle bacilli exposed to CM analogues were typically club-shaped, with deeply stained swollen ends (see Reddy et al. Antimicrob. Agents Chemother., 2008, 52(2), 719-721).

MTB inside macrophages = assay: Intracellular activity of DMSO-solubilized drug in MTB infected macrophages; format: cell-based, Mycobacterium tuberculosis; details: for Mean RLU at Day 7: Day 0 RLU 443, Control Day 7 4251
MTB in macrophages = format: cell-based, Mycobacterium tuberculosis

CCCCCCCCCC(=O)O[C@@H]1[C@H](OC)[C@@H]([C@@H](O[C@H]2OC(C(=O)N[C@H]3CCC[C@@H](C)NC3=O)=C[C@H](O)[C@@H]2O)C(N)=O)O[C@H]1n1ccc(=O)[nH]c1=O [SQ641]
PAE (post-antibiotic effect) (MTB-H37Rv; 4 μg/ml, 2 hr of exposure): 55 h
PAE of SQ641 relative to INH (MTB-H37Rv; each at 4 μg/ml): over 3 times
Routes by which replication of MTB in lungs was prevented (vs early control) (MTB): all but intranasal
ΣFIC (MAC; MAC A5, SQ641 + AMK): 0.75
ΣFIC (MAC; MAC A5, SQ641 + CLA, ≦0.5 synergistic, ≧4.0 antagonistic): 0.75
MIC Combination (MAC; MAC A5, combination SQ641 + AMK): 0.125 µg/mL
MIC Combination (MAC; MAC A5, combination SQ641 + CLA): 0.125 µg/mL
MIC Combination (MAC; MAC A5, combination SQ641 + EMB): 0.062 µg/mL
ΣFIC (MAC; MAC JSH1, SQ641 + AMK): 0.625
ΣFIC (MAC; MAC JSH1, SQ641 + CLA): 2.0
MIC Combination (MAC; MAC JSH1, combination SQ641 + AMK): 0.125 µg/mL
MIC Combination (MAC; MAC JSH1, combination SQ641 + CLA): 1 µg/mL
MIC Combination (MAC; MAC JSH1, combination SQ641 + EMB): 0.25 µg/mL
ΣFIC (MAC; MAC NIH C1-1, SQ641 + AMK): 1.0
ΣFIC (MAC; MAC NIH C1-1, SQ641 + CLA): 2.0
MIC Combination (MAC; MAC NIH C1-1, combination SQ641 + AMK): 0.5 µg/mL
MIC Combination (MAC; MAC NIH C1-1, combination SQ641 + CLA): 2.0 µg/mL
MIC Combination (MAC; MAC NIH C1-1, combination SQ641 + EMB): 0.06 µg/mL
MIC (MAC; MAC A5): 0.25 µg/mL
MIC (MAC; MAC JSH1): 1 µg/mL
MIC (MAC; MAC NIH C1-1): 2 µg/mL
MIC90 [1]: 2 µg/mL (≈ 2.71 µM)
Mean RLU at Day 7 (MTB in J774A.1 cells; SQ641 1 μg/ml + CsA10 (12 μg/ml), Day 0 RLU 811, Control Day 7 3004): 342 RLU
Mean RLU at Day 7 (MTB in J774A.1 cells; SQ641 1 μg/ml + VE10 (5 μg/ml), Day 0 RLU 425, Control Day 7 6283): 686 RLU
Mean RLU at Day 7 (MTB in J774A.1 cells; SQ641 1 μg/ml, Day 0 RLU 425, Control Day 7 6283): 3866 RLU
Mean RLU at Day 7 (MTB in J774A.1 cells; SQ641 1 μg/ml, Day 0 RLU 811, Control Day 7 3004): 2233 RLU
Mean RLU at Day 7 (MTB in J774A.1 cells; SQ641 2 μg/ml + CsA10 (12 μg/ml), Day 0 RLU 811, Control Day 7 3004): 43 RLU
Mean RLU at Day 7 (MTB in J774A.1 cells; SQ641 2 μg/ml + VE10 (5 μg/ml), Day 0 RLU 425, Control Day 7 6283): 509 RLU
Mean RLU at Day 7 (MTB in J774A.1 cells; SQ641 2 μg/ml, Day 0 RLU 425, Control Day 7 6283): 2362 RLU
Mean RLU at Day 7 (MTB in J774A.1 cells; SQ641 2 μg/ml, Day 0 RLU 811, Control Day 7 3004): 1361 RLU
Mean RLU at Day 7 (MTB in J774A.1 cells; SQ641 4 μg/ml + CsA10 (12 μg/ml), Day 0 RLU 811, Control Day 7 3004): 28 RLU
Mean RLU at Day 7 (MTB in J774A.1 cells; SQ641 4 μg/ml + VE10 (5 μg/ml), Day 0 RLU 425, Control Day 7 6283): 368 RLU
Mean RLU at Day 7 (MTB in J774A.1 cells; SQ641 4 μg/ml, Day 0 RLU 425, Control Day 7 6283): 2329 RLU
Mean RLU at Day 7 (MTB in J774A.1 cells; SQ641 4 μg/ml, Day 0 RLU 811, Control Day 7 3004): 1476 RLU
Mean RLU at Day 7 (MTB in J774A.1 cells; SQ641 8 μg/ml + CsA10 (12 μg/ml), Day 0 RLU 811, Control Day 7 3004): 15 RLU
Mean RLU at Day 7 (MTB in J774A.1 cells; SQ641 8 μg/ml + VE10 (5 μg/ml), Day 0 RLU 425, Control Day 7 6283): 44 RLU
Mean RLU at Day 7 (MTB in J774A.1 cells; SQ641 8 μg/ml, Day 0 RLU 425, Control Day 7 6283): 1392 RLU
Mean RLU at Day 7 (MTB in J774A.1 cells; SQ641 8 μg/ml, Day 0 RLU 811, Control Day 7 3004): 850 RLU
Mean RLU at Day 7 (MTB in J774A.1 cells; SQ641 16 μg/ml + CsA10 (12 μg/ml), Day 0 RLU 811, Control Day 7 3004): 14 RLU
Mean RLU at Day 7 (MTB in J774A.1 cells; SQ641 16 μg/ml + VE10 (5 μg/ml), Day 0 RLU 425, Control Day 7 6283): 18 RLU
Mean RLU at Day 7 (MTB in J774A.1 cells; SQ641 16 μg/ml, Day 0 RLU 425, Control Day 7 6283): 654 RLU
Mean RLU at Day 7 (MTB in J774A.1 cells; SQ641 16 μg/ml, Day 0 RLU 811, Control Day 7 3004): 346 RLU
Mean RLU at Day 7 (MTB in J774A.1 cells; SQ641 32 μg/ml + CsA10 (12 μg/ml), Day 0 RLU 811, Control Day 7 3004): 11 RLU
Mean RLU at Day 7 (MTB in J774A.1 cells; SQ641 32 μg/ml + VE10 (5 μg/ml), Day 0 RLU 425, Control Day 7 6283): 12 RLU
Mean RLU at Day 7 (MTB in J774A.1 cells; SQ641 32 μg/ml, Day 0 RLU 425, Control Day 7 6283): 141 RLU
Mean RLU at Day 7 (MTB in J774A.1 cells; SQ641 32 μg/ml, Day 0 RLU 811, Control Day 7 3004): 113 RLU
MIC [2]: 0.5 µg/mL (≈ 0.678 µM)
Mean RLU on day 7 (MTB in J774 cells; 4 μg/ml): 4707 RLU
Mean RLU on day 7 (MTB in J774 cells; 8 μg/ml): 2755 RLU
Bacterial disintegration / clearance of MTB cultures (MTB cultures; MTB cultures): rapid bacterial disintegration
Turbidity of MTB cultures (MTB cultures; within 2 days of exposure): marked fall in the turbidity
Mean RLU at Day 7 (MTB inside macrophages; 1 μg/ml): 1208 RLU
Mean RLU at Day 7 (MTB inside macrophages; 2 μg/ml): 1162 RLU
Mean RLU at Day 7 (MTB inside macrophages; 4 μg/ml): 1116 RLU
Mean RLU at Day 7 (MTB inside macrophages; 8 μg/ml): 441 RLU
Mean RLU at Day 7 (MTB inside macrophages; 16 μg/ml): 253 RLU
Mean RLU at Day 7 (MTB inside macrophages; 32 μg/ml): 190 RLU
Intracellular activity (FIG. 1) (MTB inside macrophages; 1× and 2× MIC): showed intracellular activities
RLU lower than the drug dissolved in DMSO (MTB in macrophages): about 50%
Mean RLU on day 7 (MTB in macrophages; SQ641 2 μg/ml, day 0 RLU 1397, Control day 7 9075): 3535 RLU

Reference: US20090281054A1, “COMPOSITIONS AND METHODS COMPRISING CAPURAMYCIN ANALOGUES” (priority 2008, published 2009)
